≈ marks a conversion by molar mass, not a printed value.
Key:
[1] = biological target: T1, Epidermal growth factor receptor (Homo sapiens, UniProt P00533); assay: Inhibition of human EGFR using poly[Glu:Tyr] (4:1) as substrate in presence of [gamma33P]ATP by radiometric HotSpot assay
[2] = Apparent permeability from apical to basolateral side in human Caco2 cells at 10 uM measured for 120 mins by LC-MS/MS analysis; conditions: for Papp A→B at 2 h, 10 µM: Caco-2; for Papp: caco-2, 2 h, 10 µM
[3] = Efflux ratio of apparent permeability across basolateral to apical side over apical to basolateral side in human Caco2 cells at 10 uM measured for 120 mins by LC-MS/MS analysis
[4] = Metabolic stability in pooled human liver microsomes assessed as half life at 3 uM measured up to 45 mins in presence of NADPH by LC-MS/MS analysis; type: ADME, Microsome; conditions: for half-life at 3 µM: pooled liver microsomes
[5] = Apparent permeability from basolateral to apical side in human Caco2 cells at 10 uM measured for 120 mins by LC-MS/MS analysis; conditions: for Papp B→A at 2 h, 10 µM: Caco-2; for Papp: caco-2, 2 h, 10 µM
[6] = Metabolic stability in pooled human liver microsomes assessed as Clearance at 3 uM measured up to 45 mins in presence of NADPH by LC-MS/MS analysis; type: ADME, Microsome; conditions: for microsomal CLint at 3 µM: pooled liver microsomes, read-out: CLH
[7] = biological target: T1, Epidermal growth factor receptor; conditions: dose 100.0 nM
Description: Inhibition of human EGFR at 100 nM using poly[Glu:Tyr] (4:1) as substrate in presence of [gamma33P]ATP by radiometric HotSpot assay relative to control

physchem = conditions: phosphate buffered saline, pH 7.4
[8] = Protein binding in plasma (unknown origin) assessed as unbound fraction at 5 uM by LC-MS/MS based equilibrium dialysis analysis
[9] = biological target: Voltage-gated inwardly rectifying potassium channel KCNH2 (Homo sapiens, UniProt Q12809); assay: Inhibition of human ERG expressed in CHO cells at -80 mV holding potential by IonWorks patch-clamp electrophysiology assay
BaF3 = assay: Antiproliferative activity against mouse Ba/F3 cells expressing EGFR-L858R mutant assessed as inhibition of cell growth incubated for 48 hrs by XTT assay; type: functional, cell-based; conditions: BaF3, 48 h
A-431 = assay: Antiproliferative activity against human A431 cells; type: functional, cell-based
[10] = biological target: T1, Epidermal growth factor receptor; assay: Inhibition of EGFR (unknown origin) using Tyr 04 peptide as substrate incubated for 1 hr by Z'-LYTE assay
[11] = biological target: T1, Epidermal growth factor receptor; conditions: dose 100.0 nM, time 1.0 hrs

T1 sequence (P00533 whole entry): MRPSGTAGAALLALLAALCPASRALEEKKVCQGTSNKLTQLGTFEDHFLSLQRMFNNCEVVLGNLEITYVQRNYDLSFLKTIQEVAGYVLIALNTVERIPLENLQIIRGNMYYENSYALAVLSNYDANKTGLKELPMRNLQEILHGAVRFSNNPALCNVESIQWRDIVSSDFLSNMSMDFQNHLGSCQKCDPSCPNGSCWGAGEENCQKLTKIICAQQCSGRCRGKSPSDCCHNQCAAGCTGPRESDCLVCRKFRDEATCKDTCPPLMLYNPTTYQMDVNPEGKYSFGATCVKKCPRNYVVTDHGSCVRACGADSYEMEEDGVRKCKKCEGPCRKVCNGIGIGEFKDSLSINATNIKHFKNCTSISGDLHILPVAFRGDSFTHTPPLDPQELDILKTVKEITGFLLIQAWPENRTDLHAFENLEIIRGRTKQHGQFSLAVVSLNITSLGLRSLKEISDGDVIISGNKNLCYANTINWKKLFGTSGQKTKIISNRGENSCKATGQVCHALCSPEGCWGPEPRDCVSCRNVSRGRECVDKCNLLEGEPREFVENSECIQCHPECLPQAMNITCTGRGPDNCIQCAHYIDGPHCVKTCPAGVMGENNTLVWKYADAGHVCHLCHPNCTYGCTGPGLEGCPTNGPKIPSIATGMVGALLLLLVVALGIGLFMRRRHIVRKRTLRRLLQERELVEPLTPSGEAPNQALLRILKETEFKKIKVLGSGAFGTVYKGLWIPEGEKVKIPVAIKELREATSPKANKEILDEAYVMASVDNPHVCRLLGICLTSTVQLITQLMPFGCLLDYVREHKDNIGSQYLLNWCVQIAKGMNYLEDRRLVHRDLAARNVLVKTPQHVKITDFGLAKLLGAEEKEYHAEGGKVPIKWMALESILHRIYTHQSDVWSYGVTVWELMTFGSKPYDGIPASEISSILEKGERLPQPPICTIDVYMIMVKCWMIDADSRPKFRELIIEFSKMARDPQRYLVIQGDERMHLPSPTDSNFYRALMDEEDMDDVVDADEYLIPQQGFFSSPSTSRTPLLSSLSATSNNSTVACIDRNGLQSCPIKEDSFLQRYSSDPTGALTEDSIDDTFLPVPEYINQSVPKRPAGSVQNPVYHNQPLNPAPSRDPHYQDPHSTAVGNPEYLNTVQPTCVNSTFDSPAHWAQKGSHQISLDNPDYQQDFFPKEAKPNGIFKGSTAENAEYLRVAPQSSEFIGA
Voltage-gated inwardly rectifying potassium channel KCNH2, sequence (Q12809 whole entry): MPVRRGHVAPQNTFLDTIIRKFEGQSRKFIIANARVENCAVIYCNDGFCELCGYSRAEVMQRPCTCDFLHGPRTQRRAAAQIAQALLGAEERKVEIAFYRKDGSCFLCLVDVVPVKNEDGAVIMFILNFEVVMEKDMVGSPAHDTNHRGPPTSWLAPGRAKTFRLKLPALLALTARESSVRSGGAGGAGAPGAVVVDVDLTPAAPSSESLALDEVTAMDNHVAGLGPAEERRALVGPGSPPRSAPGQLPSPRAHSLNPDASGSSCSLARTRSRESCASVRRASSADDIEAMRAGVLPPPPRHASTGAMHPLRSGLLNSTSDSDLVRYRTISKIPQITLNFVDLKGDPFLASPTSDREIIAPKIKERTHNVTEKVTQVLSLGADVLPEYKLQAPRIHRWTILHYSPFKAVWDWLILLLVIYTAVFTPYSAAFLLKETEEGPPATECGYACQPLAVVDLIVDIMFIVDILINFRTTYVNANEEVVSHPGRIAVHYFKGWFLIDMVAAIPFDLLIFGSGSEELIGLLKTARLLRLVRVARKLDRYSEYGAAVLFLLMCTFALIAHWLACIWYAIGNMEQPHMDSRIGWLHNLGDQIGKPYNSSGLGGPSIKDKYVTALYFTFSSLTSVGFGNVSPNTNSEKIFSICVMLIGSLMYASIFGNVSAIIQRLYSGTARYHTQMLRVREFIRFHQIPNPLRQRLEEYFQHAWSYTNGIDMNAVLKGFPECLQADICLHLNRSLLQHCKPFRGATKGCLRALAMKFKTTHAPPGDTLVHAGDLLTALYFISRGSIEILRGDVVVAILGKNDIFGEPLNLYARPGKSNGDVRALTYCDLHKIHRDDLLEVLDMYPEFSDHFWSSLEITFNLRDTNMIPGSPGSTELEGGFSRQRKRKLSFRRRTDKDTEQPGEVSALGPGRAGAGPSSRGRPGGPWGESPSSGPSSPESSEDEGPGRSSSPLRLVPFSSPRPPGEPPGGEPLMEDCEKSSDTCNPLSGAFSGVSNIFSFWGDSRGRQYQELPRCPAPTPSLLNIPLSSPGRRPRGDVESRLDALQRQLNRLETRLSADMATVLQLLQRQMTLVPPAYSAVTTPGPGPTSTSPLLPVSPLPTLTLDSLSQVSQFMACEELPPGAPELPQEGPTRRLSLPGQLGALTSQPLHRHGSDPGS

Row | Structure (SMILES) | IC50 [1] [nM] | inhibition [7] [%] | also measured
1 | CN(C)CCNCc1cc(-c2cc3c(N[C@H](CO)c4ccccc4)ncnc3[nH]2)ccc1F | 1.2 | 96 | Papp A→B at 2 h, 10 µM [2]: 1.6 ×10⁻⁶ cm/s; efflux ratio at 2 h, 10 µM ([3]; Caco-2): 5.9; t1/2 ([4]; microsomes, 0.75 h, 3 µM): 1.72 h; Papp B→A at 2 h, 10 µM [5]: 9.6 ×10⁻⁶ cm/s; CLH ([6]; microsomes, 0.75 h, 3 µM): 2.79 µL/min/mg; solubility kinetic at 2 h (physchem): > 100 µM
2 | CN(C)CCNCc1ccc(-c2cc3c(N[C@H](CO)c4ccccc4)ncnc3[nH]2)cc1 | 0.3 | 97 | –
3 | COc1cccc(OC)c1-c1cc2c(N[C@H](C)c3ccccc3)ncnc2[nH]1 | 0.6 | 97 | –
4 | COc1cc(CO)ccc1-c1cc2c(N[C@H](CO)c3ccccc3)ncnc2[nH]1 | – | – | Papp [2]: 2.98 10^-6 cm/s; half-life at 3 µM [4]: 1.83 h; fraction unbound at 5 µM [8]: 0.08; IC50 [9]: > 25000 nM; Papp [5]: 50.84 10^-6 cm/s; microsomal CLint at 3 µM [6]: 12.6 µL/min/mg; solubility kinetic at 2 h (physchem): > 100 µM
5 | COc1cc(NC(C)=O)ccc1-c1cc2c(N[C@H](CO)c3ccccc3)ncnc2[nH]1 | 0.8 | 98 | –
6 | COc1cc(CNCCN2CCOCC2)ccc1-c1cc2c(N[C@H](CO)c3ccccc3)ncnc2[nH]1 | 0.1 | 97 | –
7 | OCc1cc(-c2cc3c(N[C@H](CO)c4ccccc4)ncnc3[nH]2)ccc1F | 1.6 | 96 | –
8 | COc1cc(CN(C)CCN(C)C)ccc1-c1cc2c(N[C@H](CO)c3ccccc3)ncnc2[nH]1 | 0.1 | 99 | IC50 (BaF3): 77 nM; IC50 (A-431): > 10000 nM
9 | COc1cc(NS(C)(=O)=O)ccc1-c1cc2c(N[C@H](CO)c3ccccc3)ncnc2[nH]1 | 0.3 | 100 | –
10 | COc1cc(CNCCN2CCNCC2)ccc1-c1cc2c(N[C@H](CO)c3ccccc3)ncnc2[nH]1 | 0.1 | 98 | IC50 (BaF3): 396 nM; IC50 (A-431): 6200 nM
11 | OCc1ccc(-c2cc3c(N[C@H](CO)c4ccccc4)ncnc3[nH]2)cc1F | 0.6 | 97 | IC50 (BaF3): 158 nM; IC50 (A-431): 5800 nM
12 | CS(=O)(=O)c1ccc(-c2cc3c(N[C@H](CO)c4ccccc4)ncnc3[nH]2)cc1 | 0.8 | 96 | –
13 | COc1cc(C(N)=O)ccc1-c1cc2c(N[C@H](C)c3ccccc3)ncnc2[nH]1 | 0.4 | 98 | –
14 | CC(C)Oc1ccccc1-c1cc2c(N[C@H](C)c3ccccc3)ncnc2[nH]1 | 0.6 | 98 | –
15 | COc1cc(NS(C)(=O)=O)ccc1-c1cc2c(N[C@H](C)c3ccccc3)ncnc2[nH]1 | 0.7 | 100 | –
16 | CCOc1ccccc1-c1cc2c(N[C@H](CCO)c3ccccc3)ncnc2[nH]1 | 0.1 | 100 | IC50 (BaF3): 99 nM; IC50 (A-431): 4900 nM
17 | C[C@@H](Nc1ncnc2[nH]c(-c3ccncc3)cc12)c1ccccc1 | 0.6 | 97 | –
18 | C[C@@H](Nc1ncnc2[nH]c(-c3ccc(NS(C)(=O)=O)cc3)cc12)c1ccccc1 | 0.3 | 98 | Papp [2]: 0.03 10^-6 cm/s; Ratio ([3]; caco-2, 2 h, 10 µM): 23.7; half-life at 3 µM [4]: 1.09 h; Papp [5]: 26.9 10^-6 cm/s; microsomal CLint at 3 µM [6]: 21.2 µL/min/mg; solubility kinetic at 2 h (physchem): 37.5 µM (≈ 15.3 µg/mL)
19 | C[C@@H](Nc1ncnc2[nH]c(-c3cccc(C(N)=O)c3)cc12)c1ccccc1 | 1.4 | 95 | –
20 | C[C@@H](Nc1ncnc2[nH]c(-c3ccc(S(N)(=O)=O)cc3)cc12)c1ccccc1 | 0.7 | 96 | –
21 | OC[C@@H](Nc1ncnc2[nH]c(-c3cccnc3)cc12)c1ccccc1 | 2.2 | 92 | –

Row | Structure (SMILES) | IC50 [1] [nM] | inhibition [7] [%] | also measured
22 | OC[C@@H](Nc1ncnc2[nH]c(-c3ccncc3)cc12)c1ccccc1 | 2 | 94 | –
23 | NC(=O)Cc1cccc(-c2cc3c(N[C@H](CO)c4ccccc4)ncnc3[nH]2)c1 | 0.7 | 100 | –
24 | C[C@@H](Nc1ncnc2[nH]c(-c3ccccc3OC(F)F)cc12)c1ccccc1 | 0.8 | 98 | half-life at 3 µM [4]: 0.412 h; microsomal CLint at 3 µM [6]: 56.2 µL/min/mg
25 | Cn1c(-c2ccccc2)cc2c(N[C@H](CO)c3ccccc3)ncnc21 | 900 | 20 | –
26 | COc1cc(CNCCS(C)(=O)=O)ccc1-c1cc2c(N[C@H](CO)c3ccccc3)ncnc2[nH]1 | 0.4 | 100 | –
27 | COc1cc(CNCCN(C)C)ccc1-c1cc2c(N[C@H](C)c3ccccc3)ncnc2[nH]1 | 0.1 | 99 | IC50 (BaF3): 90 nM; IC50 (A-431): 5000 nM
28 | COc1cc(C(N)=O)ccc1-c1cc2c(N[C@H](CO)c3ccccc3)ncnc2[nH]1 | 0.5 | 99 | –
29 | C[C@@H](Nc1ncnc2[nH]c(-c3ccc(C(N)=O)cc3)cc12)c1ccccc1 | 0.8 | 97 | –
30 | CS(=O)(=O)Nc1ccc(-c2cc3c(N[C@H](CO)c4ccccc4)ncnc3[nH]2)cc1 | – | – | Papp A→B at 2 h, 10 µM [2]: 0.02 ×10⁻⁶ cm/s; half-life at 3 µM [4]: 2.27 h; Papp B→A at 2 h, 10 µM [5]: 29.2 ×10⁻⁶ cm/s; microsomal CLint at 3 µM [6]: 10.2 µL/min/mg; solubility kinetic at 2 h (physchem): > 100 µM
31 | COc1cc(CNCCN(C)C)ccc1-c1cc2c(N[C@H](CO)c3ccccc3)ncnc2[nH]1 | 0.3 | 100 | –
32 | C[C@@H](Nc1ncnc2[nH]c(-c3ccccc3OC(F)(F)F)cc12)c1ccccc1 | 4.3 | 92 | –
33 | [2H]C([2H])([2H])Oc1ccccc1-c1cc2c(N[C@H](CO)c3ccccc3)ncnc2[nH]1 | 0.4 | – | –
34 | C[C@@H](Nc1ncnc2[nH]c(-c3ccc(S(C)(=O)=O)cc3)cc12)c1ccccc1 | 0.4 | 97 | –
35 | CCOc1ccccc1-c1cc2c(N[C@H](C)c3ccccc3)ncnc2[nH]1 | 0.3 | 99 | –
36 | COc1cc(CNCCN2CCCCC2)ccc1-c1cc2c(N[C@H](CO)c3ccccc3)ncnc2[nH]1 | 0.1 | 99 | –
37 | COc1cnccc1-c1cc2c(N[C@H](CO)c3ccccc3)ncnc2[nH]1 | 0.6 | 97 | –
38 | CC(=O)Nc1ccc(-c2cc3c(N[C@H](C)c4ccccc4)ncnc3[nH]2)cc1 | 0.7 | 97 | –
39 | COC[C@@H](Nc1ncnc2[nH]c(-c3ccc(CO)cc3OC)cc12)c1ccccc1 | 0.5 | 98 | –
40 | COC[C@@H](Nc1ncnc2[nH]c(-c3ccccc3OC(F)F)cc12)c1ccccc1 | 1.3 | 96 | –
41 | OCc1ccc(-c2cc3c(N[C@H](CO)c4ccccc4)ncnc3[nH]2)cc1 | – | – | half-life at 3 µM [4]: 4.43 h; fraction unbound at 5 µM [8]: 0.11; IC50 [10]: 0.2 nM; microsomal CLint at 3 µM [6]: 5.21 µL/min/mg; inhibition [11]: 98%

Source: ChEMBL document CHEMBL4715760, “Balancing potency, metabolic stability and permeability in pyrrolopyrimidine-based EGFR inhibitors” (Eur J Med Chem, 2016)
